Measurements as given in patent US20070265451A1, “Process for the preparation of oxazolidinones and method of use thereof” (Board of Trustees of Michigan State University, priority 2001, published 2007).
Converted amounts (≈) assume the structure as drawn.

What was measured:
Format in all cases: cell-based
[1] = test system: Staphylococcus aureus 29213; assay: Broth microdilution MIC, Staphylococcus aureus ATCC 29213; details: Staphylococcus aureus; for MIC: ATCC29213, Table 2, read-out: MIC(90-100) SA-ATCC 29213; for MIC90: ATCC29212, Table 1, SA, strain ATCC 29212, read-out: MIC90-100 SA ATCC 29212
From the text: (§1) See, NCCLS document M7-A5. Methods for Dilution Antimicrobial Susceptibility Tests for Bacteria That Grow Aerobically; Approved Standard-Fifth Edition. Volume 20, Number 2. January 2000, (ISBN 1-56238-394-9) and Lorian V. Antibiotics. Laboratory Medicine. 4th ed. Baltimore: Williams and Wilkins, pp. 52-111 (1996). For subsequent testing, the following strains have been used: Staphylococcus aureus NRS4 (992; HIP5836; New Jersey) (Smith et al., New Engl. J. Med. 340: 493-501 (1999); Tenover et al., J. Clin. Microbiol. 36: 1020-1027 (1998)), Staphylococcus aureus NRS3 (963sm; HIP5827; Michigan) (Smith et al., ibid.; Tenover et al., ibid.), Staphylococcus aureus NRS103 (Becker) (Karakawa and Vann, Sem. Infect. Dis. 4: 285 (1982), Staphylococcus aureus NRS102 (Reynolds) Karakawa and Vann, ibid; McMurray et al., JID 162: 759-762 (1990)), Staphylococcus epidermidis NRS101 (ATCC 35984), Streptococcus pneumoniae (ATCC 49619), Enterococcus faecalis (ATCC 51299), and Staphylococcus aureus (ATCC 43300.
(§2) Stock cultures of these strains were obtained by seeding colonies from overnight streak plates (Tryptic Soy Agar II (TSAII) and 5% sheep's blood (SB) agar plates: Becton Dickinson, CA#2211261) into sterile Mueller-Hinton Broth (MHB)(Becton Dickinson, CA#211443) and growing the suspensions to mid-late log phase in 13 mL screw-cap tubes. Glycerol (Sigma, CA#G-6279) was sterilized by autoclaving for 15 minutes at 121° C. in 6 mL volumes, and then stored at 2-8° C. This was diluted to 20% in dH2O, and then added 1:1 (250 μL:250 μL, 10% final glycerol concentration) to the logarithmically growing bacterial suspension of each strain. Tubes were frozen and stored at −70° C. Purity of the stock cultures was tested by thawing one tube of each strain in a water bath at 37° C. and plating them on TSAII with 5% SB. Plates were incubated overnight at 37° C. and colonies were examined for morphology. Growth curves and approximate CFU/mL were also obtained.
(§3) High purity substituted oxazolidinones prepared according to the method of the present invention and a ZYVOX standard (ZYVOX is a trade name for linezolid available from Pharmacia Corporation) were provided by Synthon Corporation, Monmouth Junction, N.J. Compounds were dissolved at 10 mg/mL in DMSO, as after a dilution of approx. 39.0 to reach the desired final starting concentration of 256 ug/ml, the concentration of DMSO is approximately 2.5%. Compounds were then stored at room temperature (25° C.) in the dark.
(§4) Antimicrobial susceptibility screening was as follows. All compounds were initially screened for activity in duplicate at 256 μg/mL (2.5% DMSO), including ZYVOX, the positive control for antimicrobial activity. A single well of bacterially inoculated 2.5% DMSO served as a positive control for bacterial growth, while a well of DMSO inoculated with of 50 μL of sterile 0.9% saline served as a negative growth control. Controls were prepared on every microplate, so that 46 was the maximum number of compounds that were screened per plate. Broth was pipetted into sterile microcentrifuge tubes, to which the compounds were then added (1:19.53 dilution or 2× final concentration). Each tube was vortexed, and 50 μL was immediately transferred to the microplate wells for each strain. Solubility was assessed by visual observation. MB (medium broth solubility) was recorded if the solution appeared only slightly cloudy. LB (low broth solubility) was recorded if the solution was extremely cloudy, and especially if larger, clumpy precipitates formed. Bacteria were grown as described above, although absorbance was measured at 650 nm and bacteria were diluted to an initial OD of 0.12-0.15. Bacteria were then further diluted 1:100 with 0.9% sterile saline. Within 15 minutes of this final dilution, 50 μL of this suspension was added to each well for a final volume of […], and a final bacterial concentration of 1×10^5 CFU/mL (except for the negative control well). Plates were grown as above and all observations were recorded. […]

[2] = test system: Enterococcus faecalis 29212; assay: Broth microdilution MIC, Enterococcus faecalis ATCC 29212; details: for MIC / MIC90: Enterococcus faecalis; for MIC: ATCC29212, Table 2, read-out: MIC(90-100) EF-ATCC 29212; for MIC90: ATCC29213, Table 1, read-out: MIC90-100 EF ATCC 29213
[3] = test system: Staphylococcus aureus NRS4 (992; HIP5836; New Jersey); assay: Broth microdilution MIC, MR SA New Jersey; details: strain New Jersey; for MIC90: Staphylococcus aureus, NRS4, methicillin resistant SA, read-out: MIC90-100 MR SA New Jersey
From the text: as §1, §2, §3, §4

[4] = test system: Staphylococcus aureus NRS3 (963sm; HIP5827; Michigan); assay: Broth microdilution MIC, MR SA Michigan; details: strain Michigan; for MIC90: Staphylococcus aureus, NRS3, methicillin resistant SA, read-out: MIC90-100 MR SA Michigan
From the text: as §1, §2, §3, §4

[5] = test system: Staphylococcus aureus NRS102 (Reynolds); assay: Broth microdilution MIC, Pen. R SA Reynolds; details: strain Reynolds, read-out: MIC90-100 Pen. R SA Reynolds
From the text: as §1, §2, §3, §4

[6] = test system: Staphylococcus aureus NRS103 (Becker); assay: Broth microdilution MIC, Ref SA Becker; details: strain Becker, read-out: MIC90-100 Ref SA Becker
From the text: as §1, §2, §3, §4

[7] = test system: Myeloid bone marrow cells; assay: Bone marrow cell growth inhibition, myeloid
From the text: (§5) In general, many of the substituted oxazolidinones were as effective as ZYVOX.

[8] = test system: Erythroid bone marrow cells; assay: Bone marrow cell growth inhibition, erythroid
From the text: as §5

[9] = test system: Megakaryocytic bone marrow cells; assay: Bone marrow cell growth inhibition, megakaryocytic
From the text: as §5

[10] = test system: Enterococcus faecalis (ATCC 51299); assay: Broth microdilution MIC, Enterococcus faecalis ATCC 51299; details: ATCC51299, read-out: MIC90-100 VS EF ATCC 51299
From the text: as §1, §2, §3, §4

[11] = test system: Staphylococcus aureus (ATCC 43300); assay: Broth microdilution MIC, MR SA ATCC 43300; details: ATCC43300, methicillin resistant SA, read-out: MIC90-100 MR SA ATCC 43300
From the text: as §1, §2, §3, §4

Compound `CN(C)C(=O)/C=C/N1C[C@@H](COC(=O)c2cc(Cl)sc2Cl)OC1=O` [Compound 1629] has an MIC [1] of 256 µg/mL (≈ 651 µM) and an MIC [2] of 64 µg/mL (≈ 163 µM).
Work on `CN(C)C(=O)/C=C/N1C[C@@H](COC(=O)c2csc(-c3ccccc3)n2)OC1=O` [Compound 1631] yielded an MIC [1] of 16 µg/mL (≈ 39.9 µM) and an MIC [2] of 16 µg/mL (≈ 39.9 µM).
For `CN(C)C(=O)/C=C/N1C[C@@H](COS(=O)(=O)c2ccc([N+](=O)[O-])cc2)OC1=O` [Compound 1632], the MIC [1] was 16 µg/mL (≈ 40.1 µM) and the MIC [2] was 64 µg/mL (≈ 160 µM).
For `CN1C[C@@H](CNSc2ccc([N+](=O)[O-])cc2)OC1=O` [Compound 1687], the MIC90 [1] was 2 µg/mL (≈ 7.06 µM), the MIC90 ([2]; EF, strain printed ATCC 29213) was 2 µg/mL (≈ 7.06 µM) and the MIC90 [3] was 2 µg/mL (≈ 7.06 µM). It also gave an MIC90 [4] of 2 µg/mL (≈ 7.06 µM), an MIC90 [5] of 3 µg/mL (≈ 10.6 µM) and an MIC90 [6] of 3 µg/mL (≈ 10.6 µM). It also gave an IC50 [7] of 20 µg/mL (≈ 70.6 µM), an IC50 [8] of 0.01 µg/mL (≈ 0.0353 µM) and an IC50 [9] of 6 µg/mL (≈ 21.2 µM).
Compound `O=C1O[C@@H](COSc2ccc([N+](=O)[O-])cc2)CN1c1ccc([N+](=O)[O-])cc1` [Compound 1808] has an MIC90 [1] of 4 to 8 µg/mL (≈ 10.2 to 20.4 µM), an MIC [1] of 8 µg/mL (≈ 20.4 µM) and an MIC [2] of 2 µg/mL (≈ 5.11 µM). For the same compound, the MIC90 ([2]; EF, strain printed ATCC 29213) was 2 µg/mL (≈ 5.11 µM), the MIC90 [3] was 4 µg/mL (≈ 10.2 µM) and the MIC90 [4] was 3 µg/mL (≈ 7.67 µM). For the same compound, the MIC90 [10] was 2 µg/mL (≈ 5.11 µM), the MIC90 [11] was 8 µg/mL (≈ 20.4 µM) and the MIC90 [5] was 16 µg/mL (≈ 40.9 µM). The MIC90 [6] was 16 µg/mL (≈ 40.9 µM).
`O=C1O[C@@H](COc2cccc3c(O)cccc23)CN1c1ccc([N+](=O)[O-])cc1` [Compound 1960] was tested, and the MIC [1] was 32 µg/mL (≈ 84.1 µM) and the MIC [2] was 8 µg/mL (≈ 21 µM).
`O=C1O[C@@H](COc2ccc3c4c2CCCN4CCC3)CN1c1ccc([N+](=O)[O-])cc1` [Compound 1965] was tested, and the MIC [1] was 32 µg/mL (≈ 78.2 µM) and the MIC [2] was 8 µg/mL (≈ 19.5 µM).
`O=C1NCC(COS(=O)(=O)c2ccc([N+](=O)[O-])cc2)O1` (stereo not shown) [Compound 1985] was tested, and the MIC [1] was 8 µg/mL (≈ 26.5 µM) and the MIC [2] was 124 µg/mL (≈ 410 µM).
Compound `O=C1NCC(COS(=O)(=O)c2ccc(Cl)cc2[N+](=O)[O-])O1` (stereo not shown) [Compound 1998] has an MIC [1] of 16 µg/mL (≈ 47.5 µM) and an MIC [2] of 64 µg/mL (≈ 190 µM).
`O=C1OC(COSc2ccc([N+](=O)[O-])cc2)CN1Cc1ccc([N+](=O)[O-])cc1` (stereo not shown) [Compound 2017] was tested, and the MIC [1] was 16 µg/mL (≈ 39.5 µM) and the MIC [2] was 8 µg/mL (≈ 19.7 µM).
`O=C1OC(COSc2ccc([N+](=O)[O-])cc2)CN1Cc1ccc(Br)cc1` (stereo not shown) [Compound 2019] showed an MIC [1] of 16 µg/mL (≈ 36.4 µM) and an MIC [2] of 32 µg/mL (≈ 72.8 µM).
Compound `O=C(OCC1CN(Cc2ccc(Br)cc2)C(=O)O1)Oc1ccc([N+](=O)[O-])cc1` (stereo not shown) [Compound 2020] has an MIC [1] of 64 µg/mL (≈ 142 µM) and an MIC [2] of 124 µg/mL (≈ 275 µM).
For `CC(=O)/C=C/N1CC(COSc2ccc([N+](=O)[O-])cc2)OC1=O` (stereo not shown) [Compound 2023], the MIC [1] was 64 µg/mL (≈ 189 µM) and the MIC [2] was 32 µg/mL (≈ 94.6 µM).
With `CCOC(=O)/C=C/N1CC(COSc2ccc([N+](=O)[O-])cc2)OC1=O` (stereo not shown) [Compound 2025] the MIC [1] was 64 µg/mL (≈ 174 µM) and the MIC [2] was 32 µg/mL (≈ 86.9 µM).
With `O=C1O[C@H](CNSc2ccc([N+](=O)[O-])cc2)CN1c1ccc([N+](=O)[O-])cc1` [Compound 2278] the MIC90 [1] was 4 µg/mL (≈ 10.2 µM), the MIC90 ([2]; EF, strain printed ATCC 29213) was 2 µg/mL (≈ 5.12 µM) and the MIC90 [3] was 4 µg/mL (≈ 10.2 µM). For the same compound, the MIC90 [4] was 4 µg/mL (≈ 10.2 µM), the MIC90 [5] was 8 µg/mL (≈ 20.5 µM) and the MIC90 [6] was 8 µg/mL (≈ 20.5 µM).
`CCN1C[C@@H](COS(=O)(=O)c2ccc([N+](=O)[O-])cc2)OC1=O` [Compound 2405] was tested, and the MIC90 [1] was 2 µg/mL (≈ 6.05 µM), the “MIC90-100 EF ATCC 29213” value ([2]; Table 1, EF, strain printed ATCC 29213) was 2 µg/mL (≈ 6.05 µM) and the “MIC90-100 MR SA New Jersey” value ([3]; methicillin resistant SA) was 4 µg/mL (≈ 12.1 µM). For the same compound, the “MIC90-100 MR SA Michigan” value ([4]; methicillin resistant SA) was 2 µg/mL (≈ 6.05 µM), the MIC90 [5] was 8 µg/mL (≈ 24.2 µM) and the MIC90 [6] was 4 µg/mL (≈ 12.1 µM).
In the case of `CC(C)N1C[C@H](CNSc2ccc([N+](=O)[O-])cc2)OC1=O` [Compound 2428], the MIC90 [1] is reported as 4 µg/mL (≈ 12.8 µM), the MIC90 ([2]; EF, strain printed ATCC 29213) is reported as 4 µg/mL (≈ 12.8 µM) and the MIC90 [3] is reported as 4 to 8 µg/mL (≈ 12.8 to 25.7 µM). The MIC90 [4] was 4 to 8 µg/mL (≈ 12.8 to 25.7 µM), the MIC90 [5] was 32 µg/mL (≈ 103 µM) and the MIC90 [6] was 16 µg/mL (≈ 51.4 µM).
